Columns and labels:
[1] = tested on: Xenopus endoderm explants; experiment: nkx2-1 in situ hybridization of Xenopus endoderm explants; assay type: cell-based, Xenopus laevis; conditions: sox2 morpholino knock down; explants analysed at stage NF35
Procedure: Xenopus laevis adults were purchased from the Nasco (Fort Atkinson, Wis.), and housed according to CCHMC IACUC protocols. Ovulation, in vitro fertilization, and de-jellying of embryos were performed as described (Sive et al., 2000). A mixture of previously validated Sox2 morpholinos (MOs; Van Raay et al., 2005) targeting the 5′UTR (Sox2-UTR MO) and the ATG start codon (Sox2-ATG MO) were injected at the 8-cell stage into each vegetal blastomere (2 ng total MO per blastomere, 8 ng total per embryo) to target endoderm. MOs were synthesized and purchased from GeneTools. Equal amount of control MO was used in control injections.
For Xenopus explant studies, stage NF20 foregut endoderm tissue was micro-dissected in 1×MBS (Modified Barth's Saline; Sive et al., 2000)+50 ug/mL gentamycin sulfate (MP Biochemicals), +4% Ficoll-400 (Sigma) and explants were then cultured in 0.5×MBS+0.1% Fatty Acid Free BSA (Fisher)+50 ug/mL gentamycin sulfate with or without the following concentrations of small molecules or recombinant proteins from stages […] (approximately 48 hours): 3.5 μM Bio (Tocris), 50 ng/mL recombinant human BMP4 (R&D systems).
In situ hybridization on mouse sections was performed by generating DIG-labeled probes from linearized mouse cDNA plasmids. […]

[2] = tested on: foregut spheroids; experiment: Anterior-posterior patterning of foregut spheroids (qPCR, IF); assay type: cell-based, human; conditions: TGFβ inhibitor added during foregut induction; SB431542, 10 μM
Procedure: Confluent hPSC cultures were treated with Acutase (STEMCELL Technologies) to resuspend as single cells in mTeSR1 and Y-27632 (10 μM, Tocris) and plated on Matrigel. On the following day, differentiation into definitive endoderm was carried out as previously described (McCracken et al., 2014). Briefly, cells were treated with Activin A (100 ng mL-1, R&D systems, Minneapolis, Minn.) and BMP4 (50 ng mL-1, R&D systems) on the first day in RPMI 1640 media (Life Technologies). Cells in the following two days were treated with only Activin A (100 ng mL-1) in RPMI 1640 with increasing concentrations 0.2% and 2% of HyClone defined fetal bovine serum (dFBS, GE Healthcare Life Sciences).
For anterior foregut monolayer cultures, cells were treated for 3 days in Noggin (200 ng mL-1) in RPMI 1640 with 2% dFBS, with all-trans retinoic acid (2 μM, Sigma, St. Louis, Mo.) the 3rd day.
(§1) Alternately, for the generation of anterior foregut spheroids, from definitive endoderm, cells were treated with FGF4 (500 ng mL-1, R&D systems), Noggin (200 ng mL-1) for 3 days in RPMI 1640 with 2% dFBS. Additional factors were tested during this time (described in results), such as CHIR99021 (“chiron” or “chr”, 2 μM, Tocris), Wnt3a (500 ng mL-1, R&D systems), SB431542 (10 μM, Tocris), DEAB (10 μM, Sigma), and retinoic acid (2 μM).
Tissue cultures were fixed with 4% paraformaldehyde at either room temperature for 15 minutes, 4° C. for 2 hours for cryosectioning, or 4° C. overnight for paraffin embedding/sectioning and mouse embryos. For paraffin embedding and sectioning, following fixation, tissues were dehydrated and embedded into paraffin blocks. Afterwards, paraffin-sectioned slides were deparaffinized and subjected to antigen retrieval in 10 mM sodium citrate for 30 minutes prior to staining. For cryosectioning, tissues were thoroughly washed in PBS, left in 30% sucrose overnight, embedded in OCT compound (VWR), and sectioned at a thickness of 8 μm. Commonly, slides were then permeabilized with 0.5% TritonX-100 in PBS for 10 minutes, blocked in 5% normal donkey serum (Jackson ImmunoResearch) for 1 hour, and incubated in primary antibody overnight at 4° C. On the next day, slides were thoroughly washed in PBS, incubated in secondary antibody (at 1:500) for 1 hour, and then thoroughly washed again. For EdU visualization, Applicant used the Click-iT EdU Alexa Fluor 488 Imaging Kit (Invitrogen) prior to blocking. For wholemount immunofluorescence staining, embryos were placed in 100% methanol immediately after fixation. Embryos were then permeabilized with Dent's Bleach (4:1:1 MeOH:DMSO:30% H2O2) for 2 hours at room temperature, rehydrated with methanol washes, and blocked for several hours at room temperature to overnight at 4° C. Primary antibodies were applied and embryos incubated overnight at 4° C. Then, embryos were thoroughly washed in 0.1% TritonX-100 in PBS before incubating in secondary antibodies overnight at 4° C. Finally, embryos were washed again, dehydrated with methanol washes, and cleared with Murray's Clear (2:1 benzyl benzoate:benzyl alcohol, Sigma) at least 15 minutes prior to imaging. For a list of antibodies and dilutions used, please see Table 2.
Spheroid and organoids were harvested in total, including the embedding matrigel. Collagen plugs from the organotypic raft cultures were first removed from the transwell on day 14, and subsequently harvested in total. Total RNA was isolated using the NucleoSpin RNA kit (Macherey-Nagel) and reverse transcribed to cDNA using the SuperScript VILO cDNA synthesis kit (ThermoFisher Scientific). For qRT-PCR, Applicant used Quantitect SYBR-Green master mix (Qiagen) and ran the reaction on a QuantStudio 6 machine (ThermoFisher Scientific). For a list of primers used, please see Table 1.

[3] = tested on: AFG spheroids; experiment: Dorsal-ventral patterning / respiratory induction of anterior foregut spheroids (qPCR, IF); assay type: cell-based, human; conditions: TGFβ inhibitor added during foregut induction; day 9 spheroids
Procedure: as §1
Anterior foregut spheroids were transferred into 50 μL droplets of Matrigel, and are cultured for 3-58 days in the base (“Gut”) media of Advanced DMEM/F12 (ThermoFisher Scientific) supplemented with B27 supplement (1×, ThermoFisher Scientific), N2 supplement (1×, ThermoFisher Scientific), HEPES (13 mM, ThermoFisher Scientific), L-Glutamine (2 mM ThermoFisher Scientific), penicillin/streptomycin (1×, ThermoFisher Scientific), and EGF (100 ng mL^−1, R&D systems). In addition to this base media, the first three days were supplemented with Noggin (200 ng mL^−1), FGF10 (50 ng mL^−1), and CultureOne supplement (1×, ThermoFisher Scientific). […]
Spheroid and organoids were harvested in total, including the embedding matrigel. […] For qRT-PCR, Applicant used Quantitect SYBR-Green master mix (Qiagen) and ran the reaction on a QuantStudio 6 machine (ThermoFisher Scientific). […]

[4] = tested on: anterior foregut (AFG) cultures; experiment: Doxycycline-induced CDX2 in anterior foregut cultures (IF quantification); assay type: cell-based, human; conditions: AFG cultures treated for 1 day
Procedure: Human embryonic stem cell (hESC) line H1 (WA01, person) were purchased from WiCell. iPSC line iPS106 was generated in-house and approved by the institutional review board at CCHMC. All hPSCs were maintained on feeder-free cultures: cells were plated on hESC-qualified Matrigel (BD Biosciences, San Jose, Calif.) and maintained at 37° C. with 5% CO2 with daily replacement of mTeSR1 media (STEMCELL Technologies, Vancouver, Canada); cells were passaged routinely every 4 days using Dispase (STEMCELL Technologies). The HA-tagged SOX2, CDX2, or FANCA dox-inducible lines were generated by first cloning the human SOX2 ORF, CDX2 ORF, or FANCA ORF into pINDUCER20 (respectively) (Addgene #44012, Meerbrey et al., 2011). Next, lentivirus was generated with help of the Viral Vector Core Facility at CCHMC. The lentivirus for HA-SOX2 and CDX2 were transduced into hESCs with 2 μL of virus; these lines were maintained on selection with mTeSR1 and G418 (500 μg mL-1, ThermoFisher Scientific). The lentivirus for FANCA were transduced prior to the iPS106 line generation, as FANCA is required for maintenance of hPSC properties. The hESC H1 line (and transduced derivatives) was used in all experiments excluding Fanconi Anemia modeling in HEOs, which used the iPS106 line. […]

[5] = tested on: dorsally-patterned AFG spheroids; experiment: Outgrowth of dorsally-patterned AFG spheroids into esophageal organoids; assay type: cell-based, human; conditions: added from day 6 to day 13
Procedure: Anterior foregut spheroids were transferred into 50 μL droplets of Matrigel, and are cultured for 3-58 days in the base (“Gut”) media of Advanced DMEM/F12 (ThermoFisher Scientific) supplemented with B27 supplement (1×, ThermoFisher Scientific), N2 supplement (1×, ThermoFisher Scientific), HEPES (13 mM, ThermoFisher Scientific), L-Glutamine (2 mM ThermoFisher Scientific), penicillin/streptomycin (1×, ThermoFisher Scientific), and EGF (100 ng mL^−1, R&D systems). In addition to this base media, the first three days were supplemented with Noggin (200 ng mL^−1), FGF10 (50 ng mL^−1), and CultureOne supplement (1×, ThermoFisher Scientific). FGF10 and CultureOne supplementation is continued until the end of the first week in three-dimensional culture. Media was replaced every 3-4 days. For EdU labeling, media was supplemented with EdU (10 μM Invitrogen) for a defined period of time, and was removed by washing with sterile PBS twice before replacing with media without EdU.

Question: Which nkx2-1 expression [1] does the source give for `O=C1Nc2cc(Br)ccc2/C1=C1/Nc2ccccc2/C1=N\O` [Bio] here?
Answer: did not activate nkx2-1 expression

Question: Which posterior foregut markers [2] does the source give for `NC(=O)c1ccc(-c2nc(-c3ccc4c(c3)OCO4)c(-c3ccccn3)[nH]2)cc1` [TGFβ inhibitor, SB431542, reference compound] here?
Answer: increase in posterior foregut markers

Question: And the “upregulation of NKX2-1 on respiratory induction” value [3]?
Answer: reduces upregulation of NKX2-1

Question: For `C[C@H]1c2cccc(O)c2C(=O)C2=C(O)[C@]3(O)C(=O)C(C(N)=O)=C(O)[C@@H](N(C)C)[C@@H]3[C@@H](O)[C@@H]21` [doxycycline, Doxycycline], which “doxycycline concentration at which CDX2 induction saturates” value [4] is on record?
Answer: 100 to 500 ng/mL

B1: FGF10: recombinant human FGF10 (protein, UniProt O15520 38-208, looked up)
Fibroblast growth factor 10: QALGQDMVSPEATNSSSSSFSSPSSAGRHVRSYNHLQGDVRWRKLFSFTKYFLKIEKNGKVSGTKKENCPYSILEITSVEIGVVAVKAINSNYYLAMNKKGKLYGSKEFNNDCKLKERIEENGYNTYASFNWQHNGRQMYVALNGKGAPRRGQKTRRKNTSAHFLPMVVHS
Question: For B1, which “efficiency of spheroid to organoid outgrowth” value [5] is on record?
Answer: improved efficiency of spheroid to organoid outgrowth

Question: What about the “patterning and differentiation into esophageal organoids” value ([5]; data not shown) of the same molecule?
Answer: did not affect
